In patent US20050123553A1, “Amyloid beta-peptide and methods of use” (priority 2003, published 2005):
Ends that are not written are not given here.

Legend:
[1] = test system: Aβ16-30-specific T cells; experiment: Proliferation of Aβ16-30-specific T cells with alanine/glycine-substituted peptides; type: cell-based, human; conditions: for T-cell proliferation, average cpm: 72 hr
Source text: Because the T-cell epitopes were most frequently localized to Aβ16-30, we further mapped this epitope for each of its constituent amino acids by using alanine-substituted peptides in the T-cell proliferation assay (the naturally occurring alanines at positions 21 and 30 were changed to glycines). […] Substitution of lysine-16, alanine-21, serine-26 or aspargine-27 increased T-cell proliferation by more than 2-fold (Table 4).
In this experiment, T cells specific to Aβ16-30 were stimulated in the presence of alanine/glycine substituted peptides and autologous PBMCs. T-cell proliferation was measured by [^3H]-thymidine incorporation 72 hr after stimulation. Numbers represent average cpm of each antigen concentration tested (average cpm in the absence of antigen was 911).
(§1) T-cell lines were then supplemented with 10 μg/ml IL-2 after 48 hours and every 2 days thereafter until they were completely resting. T-cell proliferation was measured 72 hours after stimulation following a 12 hr incubation with [^3H]-thymidine. Supernatants were collected 48 hr after T-cell stimulation, and antigen-induced cytokine production was measured by sandwich ELISA. Recommended pairs of antibodies (coating and detecting) for IL-10 (R&D, Minneapolis, Minn.), INF-γ. Endogen, Woburn, Mass.), IL-13 (PharMingen, (San Diego, Calif.), and TGF-β (Promega, Madison, Wis.) were used according to the manufacturer's instructions. Surface and intracellular staining was performed on Aβ-reactive T-cells after stimulation. All antibodies were purchased from BD Biosciences (San Diego, Calif.) and staining was performed according to the manufacturer's instructions.

[2] = test system: Aβ1-42-reactive T-cell lines; experiment: Epitope mapping / proliferation of Aβ1-42-reactive T-cell lines; type: cell-based, human; conditions: for Distribution of Aβ T-cell epitopes: Number of T-cell lines / Distribution of Aβ T-cell epitopes: percent: lines from 24 subjects, fine mapping with 15 amino acid overlapping peptides
Protocol: Epitope specificity of these 3 T-cell lines using 5 overlapping peptides within Aβ15-42 was further investigated.
as §1

[3] = test system: Aβ-reactive T-cell lines; experiment: Cytokine secretion of Aβ-reactive T-cell lines (sandwich ELISA); type: cell-based, human
Protocol: as §1

[4] = test system: popliteal draining lymph nodes (PLN) T cells; experiment: Lymph node T-cell proliferation after immunization of mice with Aβ in CFA; type: cell-based, mouse; conditions: for T-cell proliferation across the peptide series Aβ7-21 to Aβ10-24: SJL mice immunized with rodent Aβ1-42; for T-cell proliferation with overlapping peptides: immunized with human Aβ1-42
[5] = test system: APP/IFN-g Tg mice
Protocol: To determine whether carrying the IA^s allele is sufficient to induce T-cell activation and migration to the CNS of APP-tg mice, B6SJLF1 APP-tg mice line J20, see Methods) were immunized with Aβ10-24 in CFA followed by intravenous injection of PT at the time of immunization and 48 hr later.
APP/IFN-γ tg mice that were immunized with Aβb 10-24 were analyzed by immunohistochemistry 20 and 30 days after immunization for immune infiltrates associated with Aβ plaques.
Immunization and measurement of immune responses: Mice were immunized by footpad injection if sacrificed on day 12, for longer periods mice were injected in the flanks. Each mouse received 100 ml of antigen (1 mg/ml), emulsified in an equal volume of complete Freund's adjuvant (CFA). Mice were also injected intravenously with 150 ng pertussis toxin at the time of immunization and 48 hours later.
Immunohistochemistry and imaging: Cryosections (6 μm) from brains of APP-Tg+ mice were placed onto glass slides and fixed with ice-cold methanol for 2 min followed by 2% PFA at RT for 4 min. Sections were washed once with distilled water for 5 min and twice with PBS containing 0.05% Tween-20. Sections were then incubated for 1 hour at RT with blocking buffer (PBS containing 3% normal goat serum and 2% bovine serum albumin).

[6] = 48 hr after stimulation, T-cell lines 1, 2, 3
[7] = SJL-derived lymphocyte cultures
[8] = App Tg, C57BL6, 12 days after imm.

Substance	T-cell proliferation, average cpm ([1]; Peptide 0.1 μg/ml)	T-cell proliferation, average cpm ([1]; Peptide 1 μg/ml)	T-cell proliferation, average cpm ([1]; Peptide 10 μg/ml)	further results
Ala 21 Gly: Aβ16-30 peptide with alanine 21 changed to glycine (KLVFFGEDVGSNKGA; Amyloid-beta protein 42; UniProt P05067 687-701, looked up, variant A21G)	12901 cpm	29634 cpm	36448 cpm	–
Ala 30 Gly: Aβ16-30 peptide with alanine 30 changed to glycine (KLVFFAEDVGSNKGG; Amyloid-beta protein 42; UniProt P05067 687-701, looked up, variant A30G)	2123 cpm	12027 cpm	15395 cpm	–
Asn 27 Ala: Aβ16-30 peptide with asparagine-27 substituted by alanine (KLVFFAEDVGSAKGA; Amyloid-beta protein 42; UniProt P05067 687-701, looked up, variant N27A)	23636 cpm	36588 cpm	34983 cpm	–
Asp 23 Ala: Aβ16-30 peptide with aspartic acid-23 substituted by alanine (KLVFFAEAVGSNKGA; Amyloid-beta protein 42; UniProt P05067 687-701, looked up, variant D23A)	1145 cpm	1685 cpm	612 cpm	effect of substitution on T-cell proliferation ([1]; at all 3 concentrations used): blocked or significantly decreased
Aβ1-28: overlapping N-terminal fragment of Aβ1-42, residues 1-28	–	–	–	Distribution of Aβ T-cell epitopes: Number of T-cell lines [2]: 2; Distribution of Aβ T-cell epitopes: percent [2]: 8%; IFN-γ secretion [3, 6]: not IFN-γ; IL-13 secretion [3, 6]: high levels
Aβ7-21: nested Aβ peptide, residues 7-21 (DSGYEVHHQKLVFFA; Amyloid-beta protein 42; UniProt P05067 678-692, looked up, fragment)	–	–	–	T-cell proliferation ([4]; NOD mice immunized with Aβ1-42): slight T-cell proliferation; T-cell proliferation across the peptide series Aβ7-21 to Aβ10-24 [4]: gradual increase; T-cell proliferation with overlapping peptides [4, 7]: induced T-cell proliferation; Distribution of Aβ T-cell epitopes: Number of T-cell lines [2]: 1; Distribution of Aβ T-cell epitopes: percent [2]: 4%
Aβ8-22: Aβ peptide, residues 8-22 (SGYEVHHQKLVFFAE; Amyloid-beta protein 42; UniProt P05067 679-693, looked up, fragment)	–	–	–	T-cell proliferation across the peptide series Aβ7-21 to Aβ10-24 [4]: gradual increase
Aβ13-27: nested Aβ peptide, residues 13-27 (HHQKLVFFAEDVGSN; Amyloid-beta protein 42; UniProt P05067 684-698, looked up, fragment)	–	–	–	T-cell proliferation with overlapping peptides [4, 7]: induced T-cell proliferation
Aβ16-30: nested Aβ peptide, residues 16-30 (KLVFFAEDVGSNKGA; Amyloid-beta protein 42; UniProt P05067 687-701, looked up, fragment)	1648 cpm	6780 cpm	17339 cpm	response compared with that induced by Aβ1-42 ([4]; 10-24 in SJL, 16-30 in C57BL6 mice): equivalent; T-cell proliferation with overlapping peptides ([4]; C57BL6 mice): induced proliferation; recall proliferation of LN-derived T cells in vitro ([4]; SJL mice immunized with human Aβ10-24): not; frequency of positive T-cell lines induced [2]: highest frequency; Distribution of Aβ T-cell epitopes: Number of T-cell lines [2]: 10; Distribution of Aβ T-cell epitopes: percent [2]: 42%; CD4 (cells/mm^2 ± SEM) [5, 8]: 0 cells/mm^2; CD11b (cells/mm^2 ± SEM) [5, 8]: 0 cells/mm^2; Th2 response [3]: elicit a Th2 response
Aβ19-33: nested Aβ peptide, residues 19-33 (FFAEDVGSNKGAIIG)	–	–	–	location of T-cell epitopes ([2]; T-cell line DRB1 1501/1101, 5 overlapping peptides within Aβ15-42): mainly located
Aβ28-42: nested Aβ peptide, residues 28-42 (KGAIIGLMVGGVVIA; Amyloid-beta protein 42; UniProt P05067 699-713, looked up, fragment)	–	–	–	Distribution of Aβ T-cell epitopes: Number of T-cell lines [2]: 5; Distribution of Aβ T-cell epitopes: percent [2]: 20%
Glu 22 Ala: Aβ16-30 peptide with glutamic acid-22 substituted by alanine (KLVFFAADVGSNKGA; Amyloid-beta protein 42; UniProt P05067 687-701, looked up, variant E22A)	1145 cpm	840 cpm	517 cpm	effect of substitution on T-cell proliferation ([1]; at all 3 concentrations used): blocked or significantly decreased
Gly 25 Ala: Aβ16-30 peptide with Gly 25 substituted by alanine (KLVFFAEDVASNKGA; Amyloid-beta protein 42; UniProt P05067 687-701, looked up, variant G25A)	2426 cpm	13763 cpm	24979 cpm	–
Gly 29 Ala: Aβ16-30 peptide with glycine-29 substituted by alanine (KLVFFAEDVGSNKAA; Amyloid-beta protein 42; UniProt P05067 687-701, looked up, variant G29A)	622 cpm	3014 cpm	14513 cpm	effect of substitution on T-cell proliferation ([1]; only at 0.1 or 1 μg/ml): inhibitory effects
Leu 17 Ala: Aβ16-30 peptide with Leu 17 substituted by alanine (KAVFFAEDVGSNKGA; Amyloid-beta protein 42; UniProt P05067 687-701, looked up, variant L17A)	2242 cpm	11805 cpm	24480 cpm	–
Lys 16 Ala: Aβ16-30 peptide with lysine-16 substituted by alanine (ALVFFAEDVGSNKGA; Amyloid-beta protein 42; UniProt P05067 687-701, looked up, variant K16A)	5357 cpm	22304 cpm	36456 cpm	–
Lys 28 Ala: Aβ16-30 peptide with Lys 28 substituted by alanine (KLVFFAEDVGSNAGA; Amyloid-beta protein 42; UniProt P05067 687-701, looked up, variant K28A)	5050 cpm	15475 cpm	29156 cpm	–
Phe 19 Ala: Aβ16-30 peptide with phenylalanine-19 substituted by alanine (KLVAFAEDVGSNKGA; Amyloid-beta protein 42; UniProt P05067 687-701, looked up, variant F19A)	986 cpm	4354 cpm	17943 cpm	effect of substitution on T-cell proliferation ([1]; only at 0.1 or 1 μg/ml): inhibitory effects
Phe 20 Ala: Aβ16-30 peptide with phenylalanine-20 substituted by alanine (KLVFAAEDVGSNKGA; Amyloid-beta protein 42; UniProt P05067 687-701, looked up, variant F20A)	1188 cpm	2239 cpm	4216 cpm	effect of substitution on T-cell proliferation ([1]; at all 3 concentrations used): blocked or significantly decreased
Ser 26 Ala: Aβ16-30 peptide with serine-26 substituted by alanine (KLVFFAEDVGANKGA; Amyloid-beta protein 42; UniProt P05067 687-701, looked up, variant S26A)	18808 cpm	36287 cpm	38335 cpm	–
Val 18 Ala: Aβ16-30 peptide with Val 18 substituted by alanine (KLAFFAEDVGSNKGA; Amyloid-beta protein 42; UniProt P05067 687-701, looked up, variant V18A)	7216 cpm	17427 cpm	26814 cpm	–
Val 24 Ala: Aβ16-30 peptide with valine-24 substituted by alanine (KLVFFAEDAGSNKGA; Amyloid-beta protein 42; UniProt P05067 687-701, looked up, variant V24A)	944 cpm	6160 cpm	19869 cpm	effect of substitution on T-cell proliferation ([1]; only at 0.1 or 1 μg/ml): inhibitory effects
YEVHHQKLVFFAEDV [Aβ10-24]	–	–	–	Immune infiltrates in the spinal cord ([5]; mouse, in vivo): not observed; meningoencephalitis ([5]; mouse, in vivo): strong meningoencephalitis
